Data reported in patent US12419847B2, “Composition and method for attenuating neuroinflammation, amyloidopathy and tauopathy” (Trustees of Dartmouth College, priority 2020, dated 2025).
Each block holds one molecule with its values, some of them ahead of it.

Assays:
ACAT = ACAT enzyme activity in mouse tissue homogenates after IV injection of nanoparticles; format: in vivo; details: delivered IV in nanoparticles
Method: A1^−/− refers to Acat1^−/− mouse. ACAT activity was determined by using a mixed liposome assay. N=4 for WT mice age (2-3 months) and gender matched. N=1 for A1^−/− mouse. N.S., not significant; P<0.05*, P<0.01**, P<0.001***. Analysis by two-way ANOVA. The significance is relative to vehicle-treated group.
A1^−/− refers to Acat1^−/− mouse. Note, the major isoenzyme in mouse liver is ACAT2. ACAT activity was determined without or with perfusion as indicated. N=3-4 for WT mice age- and gender-matched. N=1 for A1^−/− mouse. N.S., not significant; P<0.05*, P<0.01**, P<0.001***. Two-way ANOVA. The significance is relative to vehicle-treated group.
Mice were perfused before brains were isolated. N=2-3 WT mice/group. N=1 A1^−/− mouse. Statistical analysis, 2-way ANOVA. *P<0.05; **P<0.01; ***P<0.001.
As a component of the above-referenced analysis, a portion of the mice were treated with perfusion (to remove blood contamination from tissues).

ACAT1 [1] = molecular target: T1, ACAT1 (Homo sapiens (Human), UniProt P35610); test: human ACAT1 IC50 by mixed liposome assay
Method: In vitro Mixed Liposomal ACAT Activity Assay. […] Lysed cells were collected and aliquoted into pre-chilled tubes containing the liposomal mixture of taurocholate, phosphatidylcholine, and cholesterol. Tubes were vortexed and kept on ice for 5 minutes. Samples were then incubated in a 37° C. shaking water bath with ^3H-oleoyl CoA added for 10 minutes. The assay was stopped by adding CHCl3:MeOH (2:1). Lipids were extracted and analyzed by the same TLC method described herein.

ACAT2 [2] = molecular target: T2, ACAT2 (Homo sapiens (Human), UniProt O75908); details: cited from earlier work
[3] = mice, orally administered; cited from earlier work
IL-4Rα [4] = test: IL-4Rα protein content in HMC3 cells (western blot); format: cell-based, human; details: for IL-4Rα protein content: human myelin debris-treated HMC3 cells, co-incubation
Method: . Exp. 130:56322) for 21 hours.
. […] Protein was isolated and analyzed by western blot analysis. Vinculin was the loading control. […]; **P<0.01.
Subsequently, myelin debris from human brains was prepared and it was observed that the cholesterol/protein ratio, as well as the protein composition between mouse myelin debris and human myelin debris, were very similar.

[5] = in vivo; cited from earlier work
ABCA1 = ABCA1 protein content in human myelin debris-treated HMC3 cells; format: cell-based; details: HMC3, human myelin debris 25 μg/mL cholesterol, 0.5 μM, 24 hours
Method: […]. Afterward, cells were harvested for western blot analyses. Lysates of HEK293 cells and lysates of HMC3 cells treated with 10 μM LXR agonist T0901317 for 24 hours were respectively used as negative and positive controls for ABCA1 signals. […] Data are expressed as mean±SEM.
Subsequently, myelin debris from human brains was prepared and it was observed that the cholesterol/protein ratio, as well as the protein composition between mouse myelin debris and human myelin debris, were very similar. […]

primary cortical neurons = test: Lactate dehydrogenase (LDH) toxicity assay
Method: Cells were incubated in enriched neurobasal (NB) medium (Thermo Fisher Scientific, Waltham, MA) (500 mL NB media, 200 mM L-glutamine, B-27 with vitamin A, 1 mL penicillin-streptomycin (1%), and 340 mg glucose). Neurons were allowed to grow processes for 4-6 days prior to treatment.
Lactate Dehydrogenase (LDH) Toxicity Assay. Primary cortical neurons were harvested and maintained as described above. […] After treatment, the conditioned media from the cells were collected, spun at 12,000 rpm for 30 minutes to remove cellular debris, supernatant transferred to new tube, and frozen at −80° C. until time of assay. Using Cytotoxicity Detection Kit (LDH) (Roche), media and reaction mixture were mixed, incubated for 30 minutes at room temperature protected from light, and the absorbance was measured at 490 nm.

N9 microglial cells = test: inflammatory responses to LPS in N9 microglial cells (qPCR, IκB-α western blot); format: cell-based, mouse; details: 0.5 μM for 4 hours, then LPS 10-1000 ng/mL
Method: Six hours later, mRNA was extracted, and qPCR was performed to monitor pro-inflammatory (FIG. 4A) or anti-inflammatory (FIG. 4B) gene expression. […] Thirty minutes later, proteins were extracted for western blot analysis for total IκB-α, and for phosphorylated […]<0.01.

IL-4Rα [6] = test: IL-4Rα expression in N9 microglial cells (immunoblot)
Method: Cells were harvested for immunoblot analysis for IL-4Rα. Vinculin was the loading control. Data expressed as mean+/− SEM, * p<0.05, ** p<0.01.
IL-4Rα expression was determined by convention methods. 25 μg/mL cholesterol equals 38 μg/mL total myelin debris protein. Data are expressed as mean±SEM. *P<0.05; **P<0.01.

amyloidopathy = details: in vivo; cited from earlier work
ACAT1 [7] = molecular target: T1, ACAT1; details: cited from earlier work
ACAT2 [8] = molecular target: T2, ACAT2; details: cited from earlier work; remark: listed apart in the source
mouse ACAT1 = mouse ACAT1 (Mus musculus (Mouse), UniProt Q61263); test: ACAT1 protein by western blot in microRNA-transfected NIH-3T3 mouse fibroblasts; format: cell-based; details: for Relative Intensity (ACAT1 normalized to GAPDH): NIH-3T3, GFP-positive cells, 48 hours post-transfection; for reduction in ACAT1 protein content: mouse 3T3 fibroblasts, cDNA transfection
Description: NIH-3T3 mouse fibroblasts were transiently transfected with one of several rAAV vectors encoding EmGFP and microRNA (miR) #52, #53, #54 or #55. Forty-eight hours post-transfection, GFP-positive cells were harvested by FACS. GFP-positive cells were washed then lysed in 10% SDS and syringe homogenized. Twenty microgram of protein per sample was subjected to SDS-PAGE. After western blot analysis, bands were quantified with ImageJ. ACAT1 intensity was normalized to GAPDH as a loading control and expressed as relative intensity.
Four different siRNA molecules (#52-#55; Table 3) targeting the mouse Acat1 gene were inserted into an endogenous mouse microRNA (miR) scaffold using Invitrogen's RNAi design tool. The artificial miRs were ligated into the mammalian expression vector pcDNA6.2-GW/EmGFP-miR. […] The miRs were delivered to the cells using a standard cDNA transfection protocol.

T1 sequence (P35610 whole entry): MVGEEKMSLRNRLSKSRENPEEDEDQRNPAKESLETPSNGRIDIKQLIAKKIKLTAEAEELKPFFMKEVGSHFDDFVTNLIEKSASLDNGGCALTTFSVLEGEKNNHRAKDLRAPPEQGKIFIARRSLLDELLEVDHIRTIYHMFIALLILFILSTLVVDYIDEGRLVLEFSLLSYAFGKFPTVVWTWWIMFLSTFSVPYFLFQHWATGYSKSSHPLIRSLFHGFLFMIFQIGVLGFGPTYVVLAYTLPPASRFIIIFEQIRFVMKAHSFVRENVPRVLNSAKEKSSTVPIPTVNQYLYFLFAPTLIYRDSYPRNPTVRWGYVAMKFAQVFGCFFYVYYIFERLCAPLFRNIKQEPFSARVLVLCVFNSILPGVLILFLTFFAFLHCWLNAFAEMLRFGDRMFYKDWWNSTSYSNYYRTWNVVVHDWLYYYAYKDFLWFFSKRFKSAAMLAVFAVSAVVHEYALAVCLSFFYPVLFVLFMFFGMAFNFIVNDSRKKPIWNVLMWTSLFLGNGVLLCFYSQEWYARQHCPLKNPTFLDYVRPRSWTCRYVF
T2 sequence (O75908 whole entry): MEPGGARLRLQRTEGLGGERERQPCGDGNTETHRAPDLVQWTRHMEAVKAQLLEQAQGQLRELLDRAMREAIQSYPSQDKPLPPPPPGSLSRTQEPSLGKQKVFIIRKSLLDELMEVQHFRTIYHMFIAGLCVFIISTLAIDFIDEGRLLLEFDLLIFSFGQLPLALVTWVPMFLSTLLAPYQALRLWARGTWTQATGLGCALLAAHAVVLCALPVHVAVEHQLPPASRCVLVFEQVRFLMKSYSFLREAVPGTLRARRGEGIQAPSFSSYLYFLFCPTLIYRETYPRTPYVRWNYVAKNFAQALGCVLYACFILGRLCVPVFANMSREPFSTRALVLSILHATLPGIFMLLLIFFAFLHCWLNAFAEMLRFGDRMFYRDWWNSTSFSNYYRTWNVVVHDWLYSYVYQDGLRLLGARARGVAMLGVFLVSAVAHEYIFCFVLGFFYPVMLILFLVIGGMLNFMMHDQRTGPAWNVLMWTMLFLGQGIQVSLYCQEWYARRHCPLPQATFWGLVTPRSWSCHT

brain permeability (ACAT): brain permeable
IC50 (ACAT1 [1]): 13 nM
potency relative to F12511 (ACAT1 [1]): ~3 times
Molecule: CCCCCCCCCCCCS(=O)(=O)[C@](F)(C(=O)Nc1cc(C)c(O)c(C)c1C)c1ccccc1 [Analog F26]

brain permeability (ACAT): permeable to the brain
Molecule: CCCCCCCCCCCCS[C@H](C(=O)Nc1cc(C)c(O)c(C)c1C)c1ccccc1 [Analog F12511]
Ki (ACAT2 [2]): 110 nM
half-life in the blood [3]: 1 to 2 h
IL-4Rα protein content (IL-4Rα [4]): IL-4Rα protein content increases
clinical safety [5]: passed phase I clinical safety tests
ABCA1 protein content (ABCA1): increased significantly
cellular toxicity (LDH leakage) (primary cortical neurons; 24 hours, 2 μM to 100 μM): minimal, if any, toxicity
cellular toxicity (LDH leakage) (primary cortical neurons; 48 hours, very high concentrations (near 100 μM)): slight increase in toxicity
cellular toxicity (LDH leakage) (primary cortical neurons; 72 hours, 10 μM): only very minimal toxicity
cellular toxicity (LDH leakage) (primary cortical neurons; 72 hours, high concentration (near 100 μM)): more toxicity was detected

Molecule: CSc1cc(C)nc(SC)c1NC(=O)CN1CCN(CCSc2nc3ccccc3[nH]2)CC1 [Analog K-604, 2-[4-[2-(benzimidazol-2-ylthio)ethyl]piperazin-1yl]-N-[2,4-bis(methylthio)-6-methyl-3-pyridyl]acetamide]
inflammatory responses to LPS (N9 microglial cells): attenuates inflammatory responses to LPS
enhancing effect on IL4R-α with myelin debris (IL-4Rα [4]; HMC3 cells, mouse myelin debris, 21 hours): more robust
IL-4Rα protein content (IL-4Rα [4]): IL-4Rα protein content increases
clinical safety [5]: passed phase I clinical safety tests
ABCA1 protein content (ABCA1): increased significantly
expression of the receptor IL-4Rα (IL-4Rα [6]; 0.5 μM for 4 or 12 hours): increases expression of the receptor IL-4Rα
enhancing effect on IL4R-α with myelin debris (IL-4Rα [6]; mouse myelin debris, 21 hours): more robust

Molecule: CC(C)c1cc(C(C)C)c(CC(=O)NS(=O)(=O)Oc2c(C(C)C)cccc2C(C)C)c(C(C)C)c1 [CI 1011]
amyloidopathy in a mouse model for AD (amyloidopathy): reduce amyloidopathy

Molecule: CCCCCCCC[C@H](SCCCCCC)C(=O)Nc1c(SC)cc(C)nc1SC [CP113,818]
amyloidopathy in a mouse model for AD (amyloidopathy): reduce amyloidopathy and rescue cognitive deficits

Molecule: CCOC(=O)OC(=O)OCC [diethyl pyrocarbonate]
fold lower IC50 / greater activity for ACAT1 than for ACAT2 (ACAT1 [7]): 4 fold

Molecule: COc1ccc([C@@H](O)[C@@H](C)Oc2ccc([C@H]3O[C@H](c4ccc(O[C@H](C)[C@H](O)c5ccc6c(c5)OCO6)c(OC)c4)[C@H](C)[C@H]3C)cc2OC)cc1OC [manassantin B]
inhibition of hACAT-2 (ACAT2 [8]; at 1 mM): 32%

Molecule: miR #52: artificial microRNA targeting mouse ACAT1 sequence GGAGCTGAAGCCACTATTTAT (SEQ ID NO:1) (expressed or natural sequence; the letters are possibly those of the target site)
Relative Intensity (ACAT1 normalized to GAPDH) (mouse ACAT1): 0.77

Molecule: miR #53: artificial microRNA targeting mouse ACAT1 sequence CTGTTTGAAGTGGACCACATCA (SEQ ID NO:2) (expressed or natural sequence; the letters are possibly those of the target site)
Relative Intensity (ACAT1 normalized to GAPDH) (mouse ACAT1): 0.56

Molecule: miR #54: artificial microRNA targeting mouse ACAT1 sequence CCCGGTTCATTCTGATACTGGA (SEQ ID NO:3) (expressed or natural sequence; target site or template, no part of the molecule)
Relative Intensity (ACAT1 normalized to GAPDH) (mouse ACAT1): 0.54
reduction in ACAT1 protein content (mouse ACAT1): 50-60%

Molecule: miR #55: artificial microRNA targeting mouse ACAT1 sequence AACTACCCAAGGACTCCTACTGTA (SEQ ID NO:4) (expressed or natural sequence; the letters are possibly those of the target site)
Relative Intensity (ACAT1 normalized to GAPDH) (mouse ACAT1): 0.39
reduction in ACAT1 protein content (mouse ACAT1): 50-60%

Molecule: miR Negative Control: negative control miR (SEQ ID NO:9) which does not match any known vertebrate gene (TACTGCGCGTGGAGACG)
Relative Intensity (ACAT1 normalized to GAPDH) (mouse ACAT1): 1.02

Molecule: saucerneol B
IC50 (ACAT2 [8]; Lee et al. 2004, read-out: IC50 hACAT-2): 124000 nM
